pIC50: −log10 of the molar value.
Tests used:
[1] = biological target: α-glucosidase enzyme type 1 from Baker’s yeast (Saccharomyces cerevisiae, UniProt P53341); test: α-Glucosidase inhibitory assay (p-NPG substrate, absorbance at 405 nm); assay type: biochemical; settings: for inhibition at 100 µg/mL: 100 µg/mL of each compound, test repeated three times, read-out: average percent inhibition of α-glucosidase; for pIC50: mean of three experiments ± SEM, more than five concentrations
Description: Phosphate-buffered saline pH 6.5 was prepared at 20 °C by dissolving sodium phosphate monobasic (1.4 g), sodium chloride (8 g), potassium chloride (0.2 g) and potassium dihydrogen phosphate (0.2 g) in deionized water (1 L). The solution was adjusted to pH 6.5 at 20 °C with 1 M sodium hydroxide (NaOH) or hydrochloric acid (HCl). A 20-mM solution of para-nitrophenyl-α-D-glucopyranoside (p-NPG substrate) was prepared by dissolving […] of p-NPG in 10 mL of buffer solution. The α-glucosidase enzyme solution was prepared by dissolving α-glucosidase enzyme type 1 from Baker’s yeast (1 mg) in cold phosphate-buffered saline (1000 µL), pH 6.5; 50 µL of this solution was mixed into 12 mL of cold phosphate-buffered saline to give a concentration of 0.125 unit/mL. For the screening of samples, 200 µg/mL concentration was prepared in 100% dimethyl sulfoxide (DMSO). Then, two-fold serial dilutions with 5% DMSO were prepared in a 96-well microplate to give final concentrations of 100, 50, 25, 12.5, 6.25, 3.13 and 1.56 µg/mL. […]
A volume of 10 µL of 5% DMSO was added to the 96 wells of the microplate. Then, 10 µL of the stock sample was added to the first well and mixed. Subsequently, 10 µL of the sample from the first well was taken and added to the second well and this procedure was repeated for the two-fold serial dilutions. Next, 20 µL of the α-glucosidase enzyme, 40 µL of phosphate buffered saline at pH 6.5 and 20 µL of deionized water were added to each well in the 96-well microtiter plate and mixed. The mixture was pre-incubated at 37 °C for 10 min. Then, 10 µL of 20 mM p-NPG solution was added to the mixture and the absorbance at 0 min. was measured at 405 nm. The reaction was incubated for 30 min. at 37 °C and the absorbance was then measured. […] Experiments were performed in triplicate. The inhibition activity of α-glucosidase was determined based on the described method by Ahmad et al.. The percent inhibition (%) of α-glucosidase inhibitory activity was calculated using the equation: %inhibition=A30min-A0mincontrol-A30min-A0minexp/A30min-A0mincontrol×100\%
IC50 values are the mean values of three experiments represented as SEM (n = 3). […] Statistical analysis using one-way ANOVA was applied to the results. Nonlinear regression analysis using a four-parameter logistic curve was performed to calculate the IC50 values. The statistical software used were Microsoft Excel 2010 and Sigma Plot (version 14.0 Notebook, Systat Software Inc.).

α-glucosidase enzyme type 1 from Baker’s yeast, sequence (P53341 whole entry): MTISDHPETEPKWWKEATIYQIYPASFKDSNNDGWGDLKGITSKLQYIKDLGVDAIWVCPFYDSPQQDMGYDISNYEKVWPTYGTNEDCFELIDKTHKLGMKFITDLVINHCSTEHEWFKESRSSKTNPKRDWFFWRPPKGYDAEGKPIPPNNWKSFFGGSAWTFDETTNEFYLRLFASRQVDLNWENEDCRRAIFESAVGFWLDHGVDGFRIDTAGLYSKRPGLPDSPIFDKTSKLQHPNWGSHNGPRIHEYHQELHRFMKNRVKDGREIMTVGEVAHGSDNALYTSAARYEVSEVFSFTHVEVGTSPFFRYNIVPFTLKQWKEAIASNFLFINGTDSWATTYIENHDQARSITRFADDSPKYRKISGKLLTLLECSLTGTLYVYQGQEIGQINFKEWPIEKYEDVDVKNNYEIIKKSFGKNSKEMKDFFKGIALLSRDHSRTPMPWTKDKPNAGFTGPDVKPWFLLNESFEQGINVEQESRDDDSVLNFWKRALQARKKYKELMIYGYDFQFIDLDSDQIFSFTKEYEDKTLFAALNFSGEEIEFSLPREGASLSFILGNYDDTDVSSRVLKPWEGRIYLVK

melting point [°C] | Structure (SMILES) | inhibition at 100 µg/mL [1] [%] | pIC50 [1]
252 to 254 | O=c1[nH]c2nc(Oc3ccccc3)nn2c2ncccc12 [Compound 1, 2-phenoxypyrido[3,2-e][1,2,4]triazolo[1,5-a]pyrimidin-5(4H)-one] | – | –
170 to 172 | C=CCn1c(=O)c2cccnc2n2nc(Oc3ccccc3)nc12 [Compound 2b, 4-Allyl-2-phenoxypyrido[3,2-e][1,2,4]triazolo[1,5-a]pyrimidin-5(4H)-one] | – | –
195 to 197 | O=c1c2cccnc2n2nc(Oc3ccccc3)nc2n1Cc1ccccc1 [Compound 2c, 4-Benzyl-2-phenoxypyrido[3,2-e][1,2,4]triazolo[1,5-a]pyrimidin-5(4H)-one] | – | –
181 to 183 | Cc1cccc(Cn2c(=O)c3cccnc3n3nc(Oc4ccccc4)nc23)c1 [Compound 2e, 4-(3-Methylbenzyl)-2-phenoxypyrido[3,2-e][1,2,4]triazolo[1,5-a]pyrimidin-5(4H)-one] | – | –
189 to 191 | COc1cccc(Cn2c(=O)c3cccnc3n3nc(Oc4ccccc4)nc23)c1 [Compound 2f, 4-(3-Methoxybenzyl)-2-phenoxypyrido[3,2-e][1,2,4]triazolo[1,5-a]pyrimidin-5(4H)-one] | – | –
150 to 152 | O=c1c2cccnc2n2nc(Oc3ccccc3)nc2n1Cc1ccc([N+](=O)[O-])cc1 [Compound 2h, 4-(4-Nitrobenzyl)-2-phenoxypyrido[3,2-e][1,2,4]triazolo[1,5-a]pyrimidin-5(4H)-one] | – | –
144 to 146 | O=c1c2cccnc2n2nc(Oc3ccccc3)nc2n1Cc1ccc(Cl)cc1 [Compound 2i, 4-(4-Chlorobenzyl)-2-phenoxypyrido[3,2-e][1,2,4]triazolo[1,5-a]pyrimidin-5(4H)-one] | – | –
169 to 171 | O=c1c2cccnc2n2nc(Oc3ccccc3)nc2n1CCN1CCOCC1 [Compound 2j, 4-(2-Morpholinoethyl)-2-phenoxypyrido[3,2-e][1,2,4]triazolo[1,5-a]pyrimidin-5(4H)-one] | – | –
200 to 202 | O=c1c2cccnc2n2nc(Oc3ccccc3)nc2n1CCN1CCCCC1 [Compound 2k, 2-Phenoxy-4-(2-(piperidin-1-yl)ethyl)pyrido[3,2-e][1,2,4]triazolo[1,5-a]pyrimidin-5(4H)-one] | – | –
149 to 151 | COc1cccc(CSc2nc3nc(Oc4ccccc4)nn3c3ncccc23)c1 [Compound 4, 5-((3-methoxybenzyl)thio)-2-phenoxypyrido[3,2-e][1,2,4]triazolo[1,5-a]pyrimidine] | – | –
190 to 192 | Clc1nc2nc(Oc3ccccc3)nn2c2ncccc12 [Compound 5, 5-chloro-2-phenoxypyrido[3,2-e][1,2,4]triazolo[1,5-a]pyrimidine] | – | –
249 to 251 | ONc1nc2nc(Oc3ccccc3)nn2c2ncccc12 [Compound 6e, N-(2-phenoxypyrido[3,2-e][1,2,4]triazolo[1,5-a]pyrimidin-5-yl)hydroxylamine] | – | –
241 to 243 | NNc1nc2nc(Oc3ccccc3)nn2c2ncccc12 [Compound 6f, 5-hydrazinyl-2-phenoxypyrido[3,2-e][1,2,4]triazolo[1,5-a]pyrimidine] | – | –
220 to 222 | COc1ccc(O)c(/C=N/Nc2nc3nc(Oc4ccccc4)nn3c3ncccc23)c1 [Compound 6g, (E)-4-Methoxy-2-((2-(2-phenoxypyrido[3,2-e][1,2,4]triazolo[1,5-a]pyrimidin-5-yl)hydrazono)methyl)phenol] | – | –
163 to 165 | O=C(NNc1nc2nc(Oc3ccccc3)nn2c2ncccc12)c1ccncc1 [Compound 6i, N’-(2-phenoxypyrido[3,2-e][1,2,4]triazolo[1,5-a]pyrimidin-5-yl)isonicotinohydrazide] | – | –

Structure (SMILES) | melting point [°C] | inhibition at 100 µg/mL [1] [%] | pIC50 [1]
CCn1c(=O)c2cccnc2n2nc(Oc3ccccc3)nc12 [Compound 2a, 4-Ethyl-2-phenoxypyrido[3,2-e][1,2,4]triazolo[1,5-a]pyrimidin-5(4H)-one] | 173 to 175 | > 50 | 3.52
Cc1ccccc1Cn1c(=O)c2cccnc2n2nc(Oc3ccccc3)nc12 [Compound 2d, 4-(2-Methylbenzyl)-2-phenoxypyrido[3,2-e][1,2,4]triazolo[1,5-a]pyrimidin-5(4H)-one] | 160 to 162 | > 50 | 3.76
S=c1[nH]c2nc(Oc3ccccc3)nn2c2ncccc12 [Compound 3, 2-phenoxypyrido[3,2-e][1,2,4]triazolo[1,5-a]pyrimidine-5(4H)-thione] | 270 to 272 | > 60 | 3.78
c1ccc(Nc2nc3nc(Oc4ccccc4)nn3c3ncccc23)cc1 [Compound 6a, 2-Phenoxy-N-phenylpyrido[3,2-e][1,2,4]triazolo[1,5-a]pyrimidin-5-amine] | 251 to 253 | > 50 | 3.81
Cc1ccc(Nc2nc3nc(Oc4ccccc4)nn3c3ncccc23)cc1 [Compound 6b, 2-Phenoxy-N-(p-tolyl)pyrido[3,2-e][1,2,4]triazolo[1,5-a]pyrimidin-5-amine] | 162 to 164 | > 50 | 3.68
COc1ccc(Nc2nc3nc(Oc4ccccc4)nn3c3ncccc23)cc1 [Compound 6c, N-(4-Methoxyphenyl)-2-phenoxypyrido[3,2-e][1,2,4]triazolo[1,5-a]pyrimidin-5-amine] | 174 to 176 | > 60 | 3.75
CCOc1ccc(Nc2nc3nc(Oc4ccccc4)nn3c3ncccc23)cc1 [Compound 6d, N-(4-Ethoxyphenyl)-2-phenoxypyrido[3,2-e][1,2,4]triazolo[1,5-a]pyrimidin-5-amine] | 154 to 156 | > 60 | 3.86
COc1ccccc1/C=N/Nc1nc2nc(Oc3ccccc3)nn2c2ncccc12 [Compound 6h, (E)-5-(2-(2-Methoxybenzylidene)hydrazinyl)-2-phenoxypyrido[3,2-e][1,2,4]triazolo[1,5-a]pyrimidine] | 111 to 113 | > 50 | 3.98

From PMC6661812, “Synthesis, biological activity and molecular docking of new tricyclic series as α-glucosidase inhibitors” (BMC Chemistry, 2019)
